Results as given in PubChem BioAssay AID330 (DTP/NCI, 2004).
Where “and” joins values, the source holds several entries; their conditions need not be identical. Equal entries are not always repeated. Toxic doses and inconclusive results are not listed.

Tested on: P388 leukemia ip, CD2F1 mice, survival T/C
Assay: NCI In Vivo Anticancer Drug Screen. Data for tumor model P388 Leukemia (intraperitoneal) in CD2F1 (CDF1) mice
Conditions: endpoint: median survival time, higher = longer survival
Method in brief: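 Mice carrying the transplanted tumor received test compound or vehicle. Survival was recorded in each group, and the value is the treated-group measurement divided by that of the vehicle-treated control group.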

[1] = dose: 50.0 mg/kg/injection, schedule: Q01DX005 (ip), vehicle: Klucel (hydroxypropylcellulose) (HPC)
[2] = dose: 60.0 mg/kg/injection, schedule: Q01DX005 (ip), vehicle: saline with Tween-80
[3] = dose: 120.0 mg/kg/injection, schedule: Q01DX005 (ip), vehicle: saline with Tween-80
[4] = dose: 240.0 mg/kg/injection, schedule: Q01DX005 (ip), vehicle: saline with Tween-80
[5] = dose: 50.0 mg/kg/injection, schedule: Q01DX009 (ip), vehicle: Klucel (hydroxypropylcellulose) (HPC)
[6] = dose: 100.0 mg/kg/injection, schedule: Q01DX009 (ip), vehicle: Klucel (hydroxypropylcellulose) (HPC)
[7] = dose: 200.0 mg/kg/injection, schedule: Q01DX009 (ip), vehicle: Klucel (hydroxypropylcellulose) (HPC)
[8] = dose: 100.0 mg/kg/injection, schedule: Q01DX001 (ip), vehicle: Klucel (hydroxypropylcellulose) (HPC)
[9] = dose: 200.0 mg/kg/injection, schedule: Q01DX001 (ip), vehicle: Klucel (hydroxypropylcellulose) (HPC)
[10] = dose: 50.0 mg/kg/injection, schedule: Q01DX009 (ip), vehicle: saline with Tween-80
[11] = dose: 100.0 mg/kg/injection, schedule: Q01DX009 (ip), vehicle: saline with Tween-80
[12] = dose: 200.0 mg/kg/injection, schedule: Q01DX009 (ip), vehicle: saline with Tween-80
[13] = dose: 25.0 mg/kg/injection, schedule: Q01DX009 (ip), vehicle: saline with Tween-80

In the case of CC(=O)Nc1ccc(Cl)cc1C(O)c1ccccc1 (centres undefined), the T/C (dose: 12.5 mg/kg/injection, schedule: Q01DX005 (ip), vehicle: Klucel (hydroxypropylcellulose) (HPC)) is reported as 89 % of control, the T/C (dose: 25.0 mg/kg/injection, schedule: Q01DX005 (ip), vehicle: Klucel (hydroxypropylcellulose) (HPC)) is reported as 91 % of control and the T/C [1] is reported as 98 % of control and 99 % of control.
COc1cccc2c1C(=O)c1c(O)c3c(c(O)c1C2=O)CC(O)(C(C)=O)CC3OC1CC(N/C(C)=C/C(C)=O)C(O)C(C)O1 (centres undefined) was tested, and the T/C (dose: 3.13 mg/kg/injection, schedule: Q04DX003 (ip), vehicle: distilled water + Tween-80) was 94 % of control, the T/C (dose: 6.25 mg/kg/injection, schedule: Q04DX003 (ip), vehicle: distilled water + Tween-80) was 103 % of control and the T/C (dose: 12.5 mg/kg/injection, schedule: Q04DX003 (ip), vehicle: distilled water + Tween-80) was 103 % of control. The T/C (dose: 25.0 mg/kg/injection, schedule: Q04DX003 (ip), vehicle: distilled water + Tween-80) was 115 % of control and 119 % of control and the T/C (dose: 200.0 mg/kg/injection, schedule: Q04DX003 (ip), vehicle: distilled water + Tween-80) was 102 % of control.
With CCOCCOCCOC(C)Oc1cccc(C(=O)OCC)c1 (centres undefined) the T/C [2] was 92 % of control, the T/C [3] was 100 % of control and the T/C [4] was 92 % of control.
With COC(=O)N1CC2C=CC1C(Cl)(C#N)C2 (centres undefined) the T/C [5] was 101 % of control, the T/C [6] was 90 % of control and the T/C [7] was 106 % of control.
With CC(=O)OCC1OC([S-])C(OC(C)=O)C(OC(C)=O)C1OC(C)=O.CC[PH+](CC)CC.CC[PH+](CC)CC.[Au].[Au] (centres undefined) the T/C (dose: 5.0 mg/kg/injection, schedule: Q01DX009 (ip), vehicle: Klucel (hydroxypropylcellulose) (HPC)) was 121 % of control and the T/C (dose: 10.0 mg/kg/injection, schedule: Q01DX009 (ip), vehicle: Klucel (hydroxypropylcellulose) (HPC)) was 163 % of control.
For CCC1(CC)C(=O)C(CC)(CC)C1=O, the T/C [2] was 104 % of control, the T/C [3] was 110 % of control and the T/C [4] was 110 % of control.
With COc1c(OC)c(C2(O)C(=O)N(C)c3ccccc32)c(OC)c(OC)c1C1(O)C(=O)N(C)c2ccccc21 (centres undefined) the T/C [2] was 88 % of control, the T/C [3] was 87 % of control and the T/C [4] was 87 % of control.
O=C(O)CCCNC1=CC(=O)c2ccccc2C1=O was tested, and the T/C (dose: 25.0 mg/kg/injection, schedule: Q04DX003 (ip), vehicle: saline with Tween-80) was 101 % of control, the T/C (dose: 50.0 mg/kg/injection, schedule: Q04DX003 (ip), vehicle: saline with Tween-80) was 104 % of control and the T/C (dose: 100.0 mg/kg/injection, schedule: Q04DX003 (ip), vehicle: saline with Tween-80) was 102 % of control and 86 % of control.
CCCCc1c(O)c2c(=O)n(C)c(=O)n3c4ccccc4n(c1=O)c23 was tested, and the T/C [2] was 100 % of control, the T/C [3] was 89 % of control and the T/C [4] was 90 % of control.
With Nc1nc2c(=O)[nH]c(=O)[nH]c2n1C1OC(CO)C(O)C1O (centres undefined) the T/C [2] was 117 % of control.
In the case of CC1CCN(C(=O)c2nc3ccccc3[nH]2)CC1, the T/C [1] is reported as 102 % of control, the T/C (dose: 100.0 mg/kg/injection, schedule: Q01DX005 (ip), vehicle: Klucel (hydroxypropylcellulose) (HPC)) is reported as 103 % of control and the T/C (dose: 200.0 mg/kg/injection, schedule: Q01DX005 (ip), vehicle: Klucel (hydroxypropylcellulose) (HPC)) is reported as 107 % of control.
COCC1(C)CCCC2(C)C1CCC13CCCCC12O3 (centres undefined) was tested, and the T/C [8] was 100 % of control, the T/C [9] was 100 % of control and the T/C (dose: 400.0 mg/kg/injection, schedule: Q01DX001 (ip), vehicle: Klucel (hydroxypropylcellulose) (HPC)) was 100 % of control.
CC(=O)O.[Bi] was tested, and the T/C (dose: 60.0 mg/kg/injection, schedule: Q01DX005 (ip), vehicle: Klucel (hydroxypropylcellulose) (HPC)) was 97 % of control, the T/C (dose: 120.0 mg/kg/injection, schedule: Q01DX005 (ip), vehicle: Klucel (hydroxypropylcellulose) (HPC)) was 96 % of control and the T/C (dose: 240.0 mg/kg/injection, schedule: Q01DX005 (ip), vehicle: Klucel (hydroxypropylcellulose) (HPC)) was 99 % of control.
With C=C1C(=O)C23OC2C1CCC(=O)C1(C)CC[C@H](OC(C)=O)C(C)(C)[C@H]1CC3O (some centres undefined) the T/C (dose: 5.0 mg/kg/injection, schedule: Q01DX005 (ip), vehicle: Klucel (hydroxypropylcellulose) (HPC)) was 104 % of control, the T/C (dose: 10.0 mg/kg/injection, schedule: Q01DX005 (ip), vehicle: Klucel (hydroxypropylcellulose) (HPC)) was 109 % of control and the T/C (dose: 20.0 mg/kg/injection, schedule: Q01DX005 (ip), vehicle: Klucel (hydroxypropylcellulose) (HPC)) was 111 % of control. The T/C (dose: 40.0 mg/kg/injection, schedule: Q01DX005 (ip), vehicle: Klucel (hydroxypropylcellulose) (HPC)) was 110 % of control and 114 % of control.
Nc1ncnc2c1c(-c1ccccc1)cn2-c1ccc(Br)cc1 was tested, and the T/C [2] was 108 % of control, the T/C [3] was 100 % of control and the T/C [4] was 96 % of control.
In the case of CCCCCCCC/C=C\CCCCCCCC(=O)OCCN(CCOC(=O)CCCCCCC/C=C/CCCCCCCC)C(=O)COC(=O)CCCCCCC/C=C\CCCCCCCC, the T/C [10] is reported as 104 % of control, the T/C [11] is reported as 104 % of control and the T/C [12] is reported as 104 % of control.
For CCOC1(C)C=CC(=NC(C)(C)C)C=C1 (centres undefined), the T/C [13] was 97 % of control, the T/C [10] was 101 % of control and the T/C [11] was 101 % of control.
With COc1cc(Cc2n[nH]c(=S)n2-c2ccccc2)c(S(=O)(=O)N2CCOCC2)cc1OC the T/C (dose: 60.0 mg/kg/injection, schedule: Q01DX005 (ip), vehicle: saline) was 102 % of control, the T/C (dose: 120.0 mg/kg/injection, schedule: Q01DX005 (ip), vehicle: saline) was 95 % of control and the T/C (dose: 240.0 mg/kg/injection, schedule: Q01DX005 (ip), vehicle: saline) was 95 % of control.
With CCC(C)(C)N=C(Nc1cccnc1)Nc1ncccn1 the T/C (dose: 100.0 mg/kg/injection, schedule: Q04DX003 (ip), vehicle: saline) was 101 % of control and the T/C (dose: 200.0 mg/kg/injection, schedule: Q04DX003 (ip), vehicle: saline) was 92 % of control.
Cc1ccc(S(=O)(=O)N2CCN(S(=O)(=O)c3ccc(C)cc3)COC2)cc1 was tested, and the T/C [2] was 102 % of control, the T/C [3] was 97 % of control and the T/C [4] was 104 % of control.
For ClC(Cl)(Cl)C(=NN=C(C(Cl)(Cl)Cl)C(Cl)(Cl)Cl)C(Cl)(Cl)Cl, the T/C (dose: 15.0 mg/kg/injection, schedule: Q01DX005 (ip), vehicle: saline with Tween-80) was 106 % of control, the T/C (dose: 30.0 mg/kg/injection, schedule: Q01DX005 (ip), vehicle: saline with Tween-80) was 103 % of control and the T/C [2] was 100 % of control and 109 % of control.
O=C(C(Br)(Br)Br)C(Br)(Br)c1ccccc1 was tested, and the T/C [5] was 101 % of control, the T/C [6] was 101 % of control and the T/C [7] was 99 % of control.
O=C1c2ccccc2CCCC12OC2c1ccccn1 (centres undefined) was tested, and the T/C (dose: 25.0 mg/kg/injection, schedule: Q01DX009 (ip), vehicle: Klucel (hydroxypropylcellulose) (HPC)) was 98 % of control, the T/C [5] was 106 % of control and the T/C [6] was 98 % of control.
With CC1(C)CNC(=S)N1C1CCCCC1 the T/C (dose: 50.0 mg/kg/injection, schedule: Q01DX009 (ip), vehicle: suspension in saline) was 97 % of control, the T/C (dose: 100.0 mg/kg/injection, schedule: Q01DX009 (ip), vehicle: suspension in saline) was 104 % of control and the T/C (dose: 200.0 mg/kg/injection, schedule: Q01DX009 (ip), vehicle: suspension in saline) was 93 % of control.
With COn1cc(C(=O)O)c(=O)c2c3sc(=O)n(C)c3ccc21 the T/C [10] was 101 % of control, the T/C [11] was 94 % of control and the T/C [12] was 99 % of control.
In the case of CN(CCc1nnnn1C)/N=C\C=N\N(C)CCc1nnnn1C, the T/C (dose: 50.0 mg/kg/injection, schedule: Q01DX001 (ip), vehicle: Klucel (hydroxypropylcellulose) (HPC)) is reported as 112 % of control, the T/C [8] is reported as 112 % of control and the T/C [9] is reported as 97 % of control.
In the case of CSc1nc2ncnc(N)c2[nH]1, the T/C (dose: 50.0 mg/kg/injection, schedule: Q01DX005 (ip), vehicle: saline with Tween-80) is reported as 93 % of control, the T/C (dose: 100.0 mg/kg/injection, schedule: Q01DX005 (ip), vehicle: saline with Tween-80) is reported as 96 % of control and the T/C (dose: 200.0 mg/kg/injection, schedule: Q01DX005 (ip), vehicle: saline with Tween-80) is reported as 108 % of control.
In the case of Cc1cc2c(cc1C)C(=O)c1c(O)c3c(c(O)c1C2=O)C[C@@](O)(C(=O)CO)C[C@@H]3OC1CC(N)C(O)C(C)O1 (some centres undefined), the T/C (dose: 0.39 mg/kg/injection, schedule: Q04DX003 (ip), vehicle: water) is reported as 115 % of control, the T/C (dose: 0.78 mg/kg/injection, schedule: Q04DX003 (ip), vehicle: water) is reported as 115 % of control and the T/C (dose: 1.56 mg/kg/injection, schedule: Q04DX003 (ip), vehicle: water) is reported as 110 % of control. The T/C (dose: 3.13 mg/kg/injection, schedule: Q04DX003 (ip), vehicle: water) was 151 % of control and 157 % of control, the T/C (dose: 6.25 mg/kg/injection, schedule: Q04DX003 (ip), vehicle: water) was 190 % of control and the T/C (dose: 25.0 mg/kg/injection, schedule: Q04DX003 (ip), vehicle: water) was 100 % of control.
For CSNC(C)=O, the T/C [13] was 102 % of control, the T/C [10] was 109 % of control and the T/C [11] was 111 % of control.
